Values of other authors, collected in patent US7744929B2, “Botanical drug compositions for treatments of liver and immunological disorders” (priority 2003, dated 2010).

Test system: HCV

NC(=O)c1ncn([C@@H]2O[C@H](CO)[C@@H](O)[C@H]2O)n1 [ribavirin]
increase of the sustained response rate (ribavirin added to interferon): two- to three fold
effect on HCV (ribavirin by itself): little effect
